Laboratory results published in US6479435B1, “Diaryl ethers and processes for their preparation and herbicidal and desiccant compositions containing them” (ISK Americas Incorporated, priority 1997, dated 2002).

Assays:
Type in all cases: in vivo
[1] = tested on: common ragweed (Ambrosia artemisiifolia L., AMBEL); assay: Post-emerge greenhouse herbicide test, phytotoxicity rating; settings: 14 days after application, scale 0-100
Outline: (§1)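 Plants at the 2-3 leaf stage, sown 8-21 days earlier, were track-sprayed post-emergence with compound in acetone plus 0.25% v/v non-ionic surfactant at 63-1000 g ai/ha (187 l/ha). Damage was rated at 14 days on a 0-100 scale (0 none, 100 all plants dead), for both crop injury and weed control.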

[2] = tested on: ivyleaf morningglory (Ipomoea hederacea, IPOHE); assay: as above; settings: 14 days after application, scale 0-100
Outline: as §1

[3] = tested on: green foxtail (Setaria viridis, SETVI); assay: as above; settings: 14 days after application, scale 0-100
Outline: as §1

[4] = tested on: redroot pigweed (Amaranthus retroflexus, AMARE); assay: as above; settings: 14 days after application, scale 0-100
Outline: as §1

[5] = tested on: lambsquarters (Chenopodium album, CHEAL); assay: as above; settings: 14 days after application, scale 0-100
Outline: as §1

[6] = tested on: sicklepod (Cassia obtusifolia, CASOB); assay: as above; settings: 14 days after application, scale 0-100
Outline: as §1

[7] = tested on: velvetleaf (Abutilon theophrasti, ABUTH); assay: as above; settings: 14 days after application, scale 0-100
Outline: as §1

[8] = tested on: barnyardgrass (Echinochloa crusgalli, ECHCG); assay: as above; settings: 14 days after application, scale 0-100
Outline: as §1

[9] = tested on: Johnsongrass (Sorghum halepense, SORHA); assay: as above; settings: 14 days after application, scale 0-100
Outline: as §1

[10] = tested on: large crabgrass (Digitaria sanguinalis, DIGSA); assay: as above; settings: 14 days after application, scale 0-100
Outline: as §1

[11] = tested on: soybean (Glycine max L., var. Pella 86, SOY); assay: Pre-emerge greenhouse test, crop damage rating; design: key to SOY crop damage rating: 0 = no damage, 100 = complete death of all plants; settings: 14 days after application, rating scale 0-100
Outline: (§2)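 Seeds sown in sandy loam one day before track-sprayer application of acetone solutions at 125–1000 g ai/ha (187 l/ha), then surface-watered to incorporate and bottom-watered. Injury scored visually at 14 days on a 0–100 scale (0 no damage, 100 complete death).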

[12] = tested on: upland rice (Oryza sp., var.Tebonnet, RICE); assay: Post-emerge greenhouse test, crop damage rating; settings: 14 days after application, scale 0-100
Outline: as §1

[13] = tested on: field corn (Zea mays L., var. Dekalb 535, CORN); assay: Post-emerge greenhouse test, crop damage rating; settings: 14 days after application, scale 0-100
Outline: as §1

[14] = tested on: soybean (Glycine max L., var. Pella 86, SOY); assay: Post-emerge greenhouse test, crop damage rating; design: key to crop damage rating SOY: 0-100 scale: 0 = no damage, 100 = complete death of all plants; settings: 14 days after application, scale 0-100
Outline: as §1

[15] = tested on: upland rice (Oryza sp., var.Tebonnet, RICE); assay: Pre-emerge greenhouse test, crop damage rating; settings: 14 days after application, rating scale 0-100
Outline: as §2

[16] = tested on: field corn (Zea mays L., var. Dekalb 535, CORN); assay: Pre-emerge greenhouse test, crop damage rating; settings: 14 days after application, rating scale 0-100
Outline: as §2

[17] = tested on: ivyleaf morningglory (Ipomoea hederacea, IPOHE); assay: Pre-emerge greenhouse herbicide test, phytotoxicity rating; settings: 14 days after application, rating scale 0-100
Outline: as §2

[18] = tested on: green foxtail (Setaria viridis, SETVI); assay: as above; settings: 14 days after application, rating scale 0-100
Outline: as §2

[19] = tested on: redroot pigweed (Amaranthus retroflexus, AMARE); assay: as above; settings: 14 days after application, rating scale 0-100
Outline: as §2

[20] = tested on: lambsquarters (Chenopodium album, CHEAL); assay: as above; settings: 14 days after application, rating scale 0-100
Outline: as §2

[21] = tested on: sicklepod (Cassia obtusifolia, CASOB); assay: as above; settings: 14 days after application, rating scale 0-100
Outline: as §2

[22] = tested on: common ragweed (Ambrosia artemisiifolia L., AMBEL); assay: as above; settings: 14 days after application, rating scale 0-100
Outline: as §2

[23] = tested on: velvetleaf (Abutilon theophrasti, ABUTH); assay: as above; settings: 14 days after application, rating scale 0-100
Outline: as §2

[24] = tested on: barnyardgrass (Echinochloa crusgalli, ECHCG); assay: as above; settings: 14 days after application, rating scale 0-100
Outline: as §2

[25] = tested on: Johnsongrass (Sorghum halepense, SORHA); assay: as above; settings: 14 days after application, rating scale 0-100
Outline: as §2

[26] = tested on: large crabgrass (Digitaria sanguinalis, DIGSA); assay: as above; settings: 14 days after application, rating scale 0-100
Outline: as §2

Nc1cccnc1Oc1cc(-n2c(=O)n3n(c2=S)CCCC3)c(F)cc1Cl [Compound 8-42]
80: phytotoxicity rating CHEAL ([5]; rate 250 g ai/ha) | CHEAL phytotoxicity rating ([20]; Rate 125 g al/ha) | CASOB phytotoxicity rating ([21]; Rate 250 g al/ha)
20: SOY crop damage rating ([11]; Rate 250 g al/ha) | crop damage rating SOY ([14]; rate 63 g ai/ha)
95: phytotoxicity rating AMARE ([4]; rate 250 g ai/ha)
100: phytotoxicity rating ABUTH ([7]; rate 63 g ai/ha) | phytotoxicity rating ABUTH ([7]; rate 250 g ai/ha) | AMARE phytotoxicity rating ([19]; Rate 125 g al/ha) | AMARE phytotoxicity rating ([19]; Rate 250 g al/ha) | CHEAL phytotoxicity rating ([20]; Rate 250 g al/ha) | CASOB phytotoxicity rating ([21]; Rate 125 g al/ha) | ABUTH phytotoxicity rating ([23]; Rate 125 g al/ha) | ABUTH phytotoxicity rating ([23]; Rate 250 g al/ha)
90: phytotoxicity rating AMBEL ([1]; rate 250 g ai/ha)
30: IPOHE phytotoxicity rating ([17]; Rate 125 g al/ha) | AMBEL phytotoxicity rating ([22]; Rate 250 g al/ha)
0: phytotoxicity rating SETVI ([3]; rate 63 g ai/ha) | phytotoxicity rating SETVI ([3]; rate 250 g ai/ha) | phytotoxicity rating CASOB ([6]; rate 63 g ai/ha) | phytotoxicity rating CASOB ([6]; rate 250 g ai/ha) | phytotoxicity rating ECHCG ([8]; rate 63 g ai/ha) | phytotoxicity rating ECHCG ([8]; rate 250 g ai/ha) | phytotoxicity rating SORHA ([9]; rate 63 g ai/ha) | phytotoxicity rating SORHA ([9]; rate 250 g ai/ha) | phytotoxicity rating DIGSA ([10]; rate 63 g ai/ha) | phytotoxicity rating DIGSA ([10]; rate 250 g ai/ha) | SOY crop damage rating ([11]; Rate 125 g al/ha) | crop damage rating RICE ([12]; rate 63 g ai/ha) | crop damage rating RICE ([12]; rate 250 g ai/ha) | crop damage rating CORN ([13]; rate 63 g ai/ha) | crop damage rating CORN ([13]; rate 250 g ai/ha) | RICE crop damage rating ([15]; Rate 125 g al/ha) | RICE crop damage rating ([15]; Rate 250 g al/ha) | CORN crop damage rating ([16]; Rate 125 g al/ha) | CORN crop damage rating ([16]; Rate 250 g al/ha) | SETVI phytotoxicity rating ([18]; Rate 125 g al/ha) | SETVI phytotoxicity rating ([18]; Rate 250 g al/ha) | AMBEL phytotoxicity rating ([22]; Rate 125 g al/ha) | ECHCG phytotoxicity rating ([24]; Rate 125 g al/ha) | ECHCG phytotoxicity rating ([24]; Rate 250 g al/ha) | SORHA phytotoxicity rating ([25]; Rate 125 g al/ha) | DIGSA phytotoxicity rating ([26]; Rate 125 g al/ha) | DIGSA phytotoxicity rating ([26]; Rate 250 g al/ha)
40: phytotoxicity rating AMBEL ([1]; rate 63 g ai/ha)
70: phytotoxicity rating IPOHE ([2]; rate 250 g ai/ha)
60: phytotoxicity rating IPOHE ([2]; rate 63 g ai/ha) | crop damage rating SOY ([14]; rate 250 g ai/ha)
0i: SORHA phytotoxicity rating ([25]; Rate 250 g al/ha)
50: phytotoxicity rating AMARE ([4]; rate 63 g ai/ha) | phytotoxicity rating CHEAL ([5]; rate 63 g ai/ha) | IPOHE phytotoxicity rating ([17]; Rate 250 g al/ha)
